Experiments:
Assay in all cases: relative viability (nuclei count vs DMSO), 5 days (fraction); higher = more cells survive
[1] = compound: CC(C)C[C@H](NC(=O)[C@H](CCc1ccccc1)NC(=O)CN1CCOCC1)C(=O)N[C@@H](Cc1ccccc1)C(=O)N[C@@H](CC(C)C)C(=O)[C@@]1(C)CO1 [Carfilzomib] + CC(=O)c1c(C)c2cnc(Nc3ccc(N4CCNCC4)cn3)nc2n(C2CCCC2)c1=O [Palbociclib] (partner 0.5 µM)
In short: (§1)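 One day after seeding in 1536-well plates, lung cancer cell lines were dosed by pin tool. Dosing was either single-drug or a fixed anchor-drug dose plus five library-drug doses (not always all listed) in √10 steps. After 5 days, nuclei were stained in one fix-and-stain step and counted on 4× images, and relative viability is the nuclei count of treated wells over that of vehicle wells, given as the median of duplicate plates.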

[2] = compound: CC(C)C[C@H](NC(=O)[C@H](CCc1ccccc1)NC(=O)CN1CCOCC1)C(=O)N[C@@H](Cc1ccccc1)C(=O)N[C@@H](CC(C)C)C(=O)[C@@]1(C)CO1 [Carfilzomib] + CS(=O)(=O)N1CCN(Cc2cc3nc(-c4cccc5[nH]ncc45)nc(N4CCOCC4)c3s2)CC1 [Pictilisib] (partner 1 µM)
In short: as §1

[3] = compound: C[C@@H](Oc1cc(-c2cnn(C3CCNCC3)c2)cnc1N)c1c(Cl)ccc(F)c1Cl [Crizotinib] + CC(C)C[C@H](NC(=O)[C@H](Cc1ccccc1)NC(=O)c1cnccn1)B(O)O [Bortezomib] (partner 0.002 µM)
In short: as §1

[4] = compound: C[C@@H](Oc1cc(-c2cnn(C3CCNCC3)c2)cnc1N)c1c(Cl)ccc(F)c1Cl [Crizotinib] + Nc1ncn([C@H]2C[C@H](O)[C@@H](CO)O2)c(=O)n1 [Decitabine] (partner 2 µM)
In short: as §1

Cell Line: NCI-H2347
- relative viability ([1]; first compound 0.001 µM): 0.463
- relative viability ([1]; first compound 0.003162 µM): 0.427
- relative viability ([1]; first compound 0.01 µM): 0.438
- relative viability ([1]; first compound 0.03162 µM): 0.382
- relative viability ([1]; first compound 0.1 µM): 0.332
- relative viability ([2]; first compound 0.001 µM): 0.662
- relative viability ([2]; first compound 0.003162 µM): 0.623
- relative viability ([2]; first compound 0.01 µM): 0.67
- relative viability ([2]; first compound 0.03162 µM): 0.549
- relative viability ([2]; first compound 0.1 µM): 0.318
- relative viability ([3]; first compound 0.01 µM): 1.02
- relative viability ([3]; first compound 0.03162 µM): 0.919
- relative viability ([3]; first compound 0.1 µM): 1.15
- relative viability ([3]; first compound 0.3162 µM): 0.95
- relative viability ([3]; first compound 1 µM): 1.14
- relative viability ([4]; first compound 0.01 µM): 0.69
- relative viability ([4]; first compound 0.03162 µM): 0.616
- relative viability ([4]; first compound 0.1 µM): 0.674
- relative viability ([4]; first compound 0.3162 µM): 0.608
- relative viability ([4]; first compound 1 µM): 0.661

Cell Line: NCI-H2405
- relative viability ([1]; first compound 0.001 µM): 0.498
- relative viability ([1]; first compound 0.003162 µM): 0.527
- relative viability ([1]; first compound 0.01 µM): 0.539
- relative viability ([1]; first compound 0.03162 µM): 0.489
- relative viability ([1]; first compound 0.1 µM): 0.136
- relative viability ([2]; first compound 0.003162 µM): 0.583
- relative viability ([2]; first compound 0.01 µM): 0.521
- relative viability ([2]; first compound 0.03162 µM): 0.321
- relative viability ([2]; first compound 0.1 µM): 0.174
- relative viability ([3]; first compound 0.01 µM): 1
- relative viability ([3]; first compound 0.03162 µM): 0.997
- relative viability ([3]; first compound 0.1 µM): 1.04
- relative viability ([3]; first compound 0.3162 µM): 1.09
- relative viability ([4]; first compound 0.01 µM): 0.717
- relative viability ([4]; first compound 0.03162 µM): 0.698
- relative viability ([4]; first compound 0.1 µM): 0.717
- relative viability ([4]; first compound 0.3162 µM): 0.727
- relative viability ([4]; first compound 1 µM): 0.734

Cell Line: NCI-H3122
- relative viability ([1]; first compound 0.001 µM): 0.238
- relative viability ([1]; first compound 0.003162 µM): 0.222
- relative viability ([1]; first compound 0.01 µM): 0.191
- relative viability ([1]; first compound 0.03162 µM): 0.187
- relative viability ([1]; first compound 0.1 µM): 0.132
- relative viability ([2]; first compound 0.001 µM): 0.585
- relative viability ([2]; first compound 0.003162 µM): 0.615
- relative viability ([2]; first compound 0.01 µM): 0.6
- relative viability ([2]; first compound 0.03162 µM): 0.602
- relative viability ([2]; first compound 0.1 µM): 0.34
- relative viability ([3]; first compound 0.01 µM): 0.96
- relative viability ([3]; first compound 0.03162 µM): 0.942
- relative viability ([3]; first compound 0.1 µM): 1.09
- relative viability ([3]; first compound 0.3162 µM): 0.889
- relative viability ([3]; first compound 1 µM): 0.989
- relative viability ([4]; first compound 0.01 µM): 0.316
- relative viability ([4]; first compound 0.03162 µM): 0.408
- relative viability ([4]; first compound 0.1 µM): 0.456
- relative viability ([4]; first compound 0.3162 µM): 0.409
- relative viability ([4]; first compound 1 µM): 0.453

Cell Line: PC-3 [JPC-3]
- relative viability ([1]; first compound 0.001 µM): 0.516
- relative viability ([1]; first compound 0.003162 µM): 0.539
- relative viability ([1]; first compound 0.01 µM): 0.564
- relative viability ([1]; first compound 0.03162 µM): 0.502
- relative viability ([1]; first compound 0.1 µM): 0.333
- relative viability ([2]; first compound 0.001 µM): 0.782
- relative viability ([2]; first compound 0.003162 µM): 0.747
- relative viability ([2]; first compound 0.01 µM): 0.677
- relative viability ([2]; first compound 0.03162 µM): 0.707
- relative viability ([2]; first compound 0.1 µM): 0.259
- relative viability ([3]; first compound 0.01 µM): 0.772
- relative viability ([3]; first compound 0.03162 µM): 0.948
- relative viability ([3]; first compound 0.1 µM): 0.833
- relative viability ([3]; first compound 0.3162 µM): 0.878
- relative viability ([3]; first compound 1 µM): 0.837
- relative viability ([4]; first compound 0.01 µM): 0.794
- relative viability ([4]; first compound 0.03162 µM): 0.809
- relative viability ([4]; first compound 0.1 µM): 0.839
- relative viability ([4]; first compound 1 µM): 0.865

Cell Line: PC-14
- relative viability ([1]; first compound 0.001 µM): 0.558
- relative viability ([1]; first compound 0.003162 µM): 0.597
- relative viability ([1]; first compound 0.01 µM): 0.437
- relative viability ([1]; first compound 0.03162 µM): 0.05
- relative viability ([1]; first compound 0.1 µM): 0.0508
- relative viability ([2]; first compound 0.001 µM): 0.55
- relative viability ([2]; first compound 0.003162 µM): 0.816
- relative viability ([2]; first compound 0.01 µM): 0.364
- relative viability ([2]; first compound 0.03162 µM): 0.0334
- relative viability ([2]; first compound 0.1 µM): 0.0646
- relative viability ([3]; first compound 0.01 µM): 0.892
- relative viability ([3]; first compound 0.03162 µM): 0.742
- relative viability ([3]; first compound 0.1 µM): 0.905
- relative viability ([3]; first compound 0.3162 µM): 0.805
- relative viability ([3]; first compound 1 µM): 0.961
- relative viability ([4]; first compound 0.01 µM): 0.182
- relative viability ([4]; first compound 0.03162 µM): 0.248
- relative viability ([4]; first compound 0.1 µM): 0.225
- relative viability ([4]; first compound 0.3162 µM): 0.244
- relative viability ([4]; first compound 1 µM): 0.248

Cell Line: RERF-LC-KJ
- relative viability ([1]; first compound 0.001 µM): 1.07
- relative viability ([1]; first compound 0.003162 µM): 1.04
- relative viability ([1]; first compound 0.01 µM): 1.27
- relative viability ([1]; first compound 0.03162 µM): 0.837
- relative viability ([1]; first compound 0.1 µM): 0.193
- relative viability ([2]; first compound 0.001 µM): 0.528
- relative viability ([2]; first compound 0.003162 µM): 0.469
- relative viability ([2]; first compound 0.01 µM): 0.675
- relative viability ([2]; first compound 0.03162 µM): 0.265
- relative viability ([2]; first compound 0.1 µM): 0.149
- relative viability ([3]; first compound 0.01 µM): 1.02
- relative viability ([3]; first compound 0.03162 µM): 0.951
- relative viability ([3]; first compound 0.1 µM): 1.1
- relative viability ([3]; first compound 0.3162 µM): 1
- relative viability ([3]; first compound 1 µM): 1.09
- relative viability ([4]; first compound 0.01 µM): 0.737
- relative viability ([4]; first compound 0.03162 µM): 0.635
- relative viability ([4]; first compound 0.1 µM): 0.569
- relative viability ([4]; first compound 0.3162 µM): 0.585
- relative viability ([4]; first compound 1 µM): 0.7

Cell Line: SK-LU-1
- relative viability ([1]; first compound 0.001 µM): 0.331
- relative viability ([1]; first compound 0.003162 µM): 0.442
- relative viability ([1]; first compound 0.01 µM): 0.336
- relative viability ([1]; first compound 0.03162 µM): 0.266
- relative viability ([1]; first compound 0.1 µM): 0.171
- relative viability ([2]; first compound 0.001 µM): 0.518
- relative viability ([2]; first compound 0.003162 µM): 0.653
- relative viability ([2]; first compound 0.01 µM): 0.541
- relative viability ([2]; first compound 0.03162 µM): 0.201
- relative viability ([2]; first compound 0.1 µM): 0.15
- relative viability ([3]; first compound 0.01 µM): 1.19
- relative viability ([3]; first compound 0.03162 µM): 1.13
- relative viability ([3]; first compound 0.1 µM): 1.46
- relative viability ([3]; first compound 0.3162 µM): 0.794
- relative viability ([3]; first compound 1 µM): 1.3
- relative viability ([4]; first compound 0.01 µM): 0.648
- relative viability ([4]; first compound 0.03162 µM): 0.715
- relative viability ([4]; first compound 0.1 µM): 0.634
- relative viability ([4]; first compound 0.3162 µM): 0.599
- relative viability ([4]; first compound 1 µM): 0.63

Cell Line: SW 1573
- relative viability ([1]; first compound 0.001 µM): 0.396
- relative viability ([1]; first compound 0.003162 µM): 0.5
- relative viability ([1]; first compound 0.01 µM): 0.235
- relative viability ([1]; first compound 0.03162 µM): 0.0595
- relative viability ([1]; first compound 0.1 µM): 0.0481
- relative viability ([2]; first compound 0.001 µM): 0.517
- relative viability ([2]; first compound 0.003162 µM): 0.512
- relative viability ([2]; first compound 0.01 µM): 0.404
- relative viability ([2]; first compound 0.03162 µM): 0.277
- relative viability ([2]; first compound 0.1 µM): 0.0513
- relative viability ([3]; first compound 0.03162 µM): 1.04
- relative viability ([3]; first compound 0.1 µM): 1.04
- relative viability ([3]; first compound 0.3162 µM): 1.19
- relative viability ([3]; first compound 1 µM): 0.836
- relative viability ([4]; first compound 0.01 µM): 0.431
- relative viability ([4]; first compound 0.03162 µM): 0.529
- relative viability ([4]; first compound 0.1 µM): 0.483
- relative viability ([4]; first compound 0.3162 µM): 0.404
- relative viability ([4]; first compound 1 µM): 0.456

Cell Line: UMC-11
- relative viability ([1]; first compound 0.001 µM): 0.378
- relative viability ([1]; first compound 0.003162 µM): 0.325
- relative viability ([1]; first compound 0.01 µM): 0.343
- relative viability ([1]; first compound 0.03162 µM): 0.343
- relative viability ([1]; first compound 0.1 µM): 0.277
- relative viability ([2]; first compound 0.001 µM): 0.608
- relative viability ([2]; first compound 0.003162 µM): 0.956
- relative viability ([2]; first compound 0.01 µM): 0.778
- relative viability ([2]; first compound 0.03162 µM): 0.648
- relative viability ([2]; first compound 0.1 µM): 0.336
- relative viability ([3]; first compound 0.01 µM): 0.615
- relative viability ([3]; first compound 0.03162 µM): 0.989
- relative viability ([3]; first compound 0.1 µM): 0.695
- relative viability ([3]; first compound 0.3162 µM): 0.199
- relative viability ([3]; first compound 1 µM): 0.9
- relative viability ([4]; first compound 0.01 µM): 0.694
- relative viability ([4]; first compound 0.03162 µM): 0.593
- relative viability ([4]; first compound 0.1 µM): 0.521
- relative viability ([4]; first compound 1 µM): 0.643

From the supplement of paper PMC10307832
